The structures appear in SMILES notation. pIC50: −log10 of the molar value.

This note sets out measurements from ChEMBL document CHEMBL5705888, “Substrate specificity and inhibitors of LRRK2, a protein kinase mutated in Parkinson's disease” (Biochem J, 2009).

Assay [1] concerns the target Leucine-rich repeat serine/threonine-protein kinase 2 (Homo sapiens, UniProt Q5S007). In words: Inhibition of GST-tagged LRRK2 (1326 to 2527 residues) (unknown origin) using peptide as substrate incubated for 15 mins in presence of ATP by immunoblotting analysis.
For assay [2], the target named is Leucine-rich repeat serine/threonine-protein kinase 2 (Homo sapiens, UniProt Q5S007, G2019S). In words: Inhibition of GST-tagged LRRK2 G2019S mutant (1326 to 2527 residues) (unknown origin) using peptide as substrate incubated for 15 mins in presence of ATP by immunoblotting analysis. (In general: A western blot detects proteins with antibodies after separation by electrophoresis.)

The target in assay [3] is Rho-associated protein kinase 2 (Homo sapiens, UniProt O75116). In words: Inhibition of His6-tagged ROCK2 (2 to 543 residues) (unknown origin) using peptide as substrate incubated for 15 mins in presence of ATP by immunoblotting analysis.
Chain of Rho-associated protein kinase 2 (O75116 whole entry, the tested form may be a part): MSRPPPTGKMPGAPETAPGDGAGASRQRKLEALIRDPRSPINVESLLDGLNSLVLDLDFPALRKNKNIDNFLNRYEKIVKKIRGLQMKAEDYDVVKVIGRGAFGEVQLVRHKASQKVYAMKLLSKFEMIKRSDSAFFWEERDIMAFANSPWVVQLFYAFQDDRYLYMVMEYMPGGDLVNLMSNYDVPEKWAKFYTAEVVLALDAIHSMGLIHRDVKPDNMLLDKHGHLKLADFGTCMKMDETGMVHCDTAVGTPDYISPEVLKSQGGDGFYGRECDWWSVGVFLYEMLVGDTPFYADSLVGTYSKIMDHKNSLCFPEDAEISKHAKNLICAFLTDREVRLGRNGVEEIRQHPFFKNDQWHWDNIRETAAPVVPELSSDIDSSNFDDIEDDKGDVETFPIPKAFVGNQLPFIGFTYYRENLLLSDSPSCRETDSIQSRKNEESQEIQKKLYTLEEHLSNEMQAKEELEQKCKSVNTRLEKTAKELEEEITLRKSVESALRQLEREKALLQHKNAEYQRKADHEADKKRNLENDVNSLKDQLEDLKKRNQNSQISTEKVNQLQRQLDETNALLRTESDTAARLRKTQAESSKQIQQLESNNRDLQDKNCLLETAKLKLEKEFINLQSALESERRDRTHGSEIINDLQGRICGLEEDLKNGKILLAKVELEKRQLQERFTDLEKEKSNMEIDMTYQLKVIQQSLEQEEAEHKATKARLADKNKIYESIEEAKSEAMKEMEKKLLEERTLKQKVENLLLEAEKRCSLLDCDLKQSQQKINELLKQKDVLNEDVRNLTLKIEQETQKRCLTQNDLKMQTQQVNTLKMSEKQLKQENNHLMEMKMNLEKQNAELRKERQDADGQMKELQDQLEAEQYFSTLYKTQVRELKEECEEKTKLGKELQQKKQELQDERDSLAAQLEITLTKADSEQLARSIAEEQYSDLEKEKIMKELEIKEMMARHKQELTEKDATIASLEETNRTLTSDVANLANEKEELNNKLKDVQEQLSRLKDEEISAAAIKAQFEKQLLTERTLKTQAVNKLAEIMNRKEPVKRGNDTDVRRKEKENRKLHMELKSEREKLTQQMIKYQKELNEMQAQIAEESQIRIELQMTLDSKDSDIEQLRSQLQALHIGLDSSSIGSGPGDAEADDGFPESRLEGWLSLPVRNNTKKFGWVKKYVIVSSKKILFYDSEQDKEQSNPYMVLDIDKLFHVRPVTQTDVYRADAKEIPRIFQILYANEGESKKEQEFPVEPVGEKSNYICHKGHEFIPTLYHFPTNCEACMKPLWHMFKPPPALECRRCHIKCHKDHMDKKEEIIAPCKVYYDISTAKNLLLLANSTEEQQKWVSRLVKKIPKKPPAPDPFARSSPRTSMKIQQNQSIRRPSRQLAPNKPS

Chain of Leucine-rich repeat serine/threonine-protein kinase 2 (Homo sapiens, UniProt Q5S007, G2019S) (Q5S007 whole entry G2019S, the tested form may be a part): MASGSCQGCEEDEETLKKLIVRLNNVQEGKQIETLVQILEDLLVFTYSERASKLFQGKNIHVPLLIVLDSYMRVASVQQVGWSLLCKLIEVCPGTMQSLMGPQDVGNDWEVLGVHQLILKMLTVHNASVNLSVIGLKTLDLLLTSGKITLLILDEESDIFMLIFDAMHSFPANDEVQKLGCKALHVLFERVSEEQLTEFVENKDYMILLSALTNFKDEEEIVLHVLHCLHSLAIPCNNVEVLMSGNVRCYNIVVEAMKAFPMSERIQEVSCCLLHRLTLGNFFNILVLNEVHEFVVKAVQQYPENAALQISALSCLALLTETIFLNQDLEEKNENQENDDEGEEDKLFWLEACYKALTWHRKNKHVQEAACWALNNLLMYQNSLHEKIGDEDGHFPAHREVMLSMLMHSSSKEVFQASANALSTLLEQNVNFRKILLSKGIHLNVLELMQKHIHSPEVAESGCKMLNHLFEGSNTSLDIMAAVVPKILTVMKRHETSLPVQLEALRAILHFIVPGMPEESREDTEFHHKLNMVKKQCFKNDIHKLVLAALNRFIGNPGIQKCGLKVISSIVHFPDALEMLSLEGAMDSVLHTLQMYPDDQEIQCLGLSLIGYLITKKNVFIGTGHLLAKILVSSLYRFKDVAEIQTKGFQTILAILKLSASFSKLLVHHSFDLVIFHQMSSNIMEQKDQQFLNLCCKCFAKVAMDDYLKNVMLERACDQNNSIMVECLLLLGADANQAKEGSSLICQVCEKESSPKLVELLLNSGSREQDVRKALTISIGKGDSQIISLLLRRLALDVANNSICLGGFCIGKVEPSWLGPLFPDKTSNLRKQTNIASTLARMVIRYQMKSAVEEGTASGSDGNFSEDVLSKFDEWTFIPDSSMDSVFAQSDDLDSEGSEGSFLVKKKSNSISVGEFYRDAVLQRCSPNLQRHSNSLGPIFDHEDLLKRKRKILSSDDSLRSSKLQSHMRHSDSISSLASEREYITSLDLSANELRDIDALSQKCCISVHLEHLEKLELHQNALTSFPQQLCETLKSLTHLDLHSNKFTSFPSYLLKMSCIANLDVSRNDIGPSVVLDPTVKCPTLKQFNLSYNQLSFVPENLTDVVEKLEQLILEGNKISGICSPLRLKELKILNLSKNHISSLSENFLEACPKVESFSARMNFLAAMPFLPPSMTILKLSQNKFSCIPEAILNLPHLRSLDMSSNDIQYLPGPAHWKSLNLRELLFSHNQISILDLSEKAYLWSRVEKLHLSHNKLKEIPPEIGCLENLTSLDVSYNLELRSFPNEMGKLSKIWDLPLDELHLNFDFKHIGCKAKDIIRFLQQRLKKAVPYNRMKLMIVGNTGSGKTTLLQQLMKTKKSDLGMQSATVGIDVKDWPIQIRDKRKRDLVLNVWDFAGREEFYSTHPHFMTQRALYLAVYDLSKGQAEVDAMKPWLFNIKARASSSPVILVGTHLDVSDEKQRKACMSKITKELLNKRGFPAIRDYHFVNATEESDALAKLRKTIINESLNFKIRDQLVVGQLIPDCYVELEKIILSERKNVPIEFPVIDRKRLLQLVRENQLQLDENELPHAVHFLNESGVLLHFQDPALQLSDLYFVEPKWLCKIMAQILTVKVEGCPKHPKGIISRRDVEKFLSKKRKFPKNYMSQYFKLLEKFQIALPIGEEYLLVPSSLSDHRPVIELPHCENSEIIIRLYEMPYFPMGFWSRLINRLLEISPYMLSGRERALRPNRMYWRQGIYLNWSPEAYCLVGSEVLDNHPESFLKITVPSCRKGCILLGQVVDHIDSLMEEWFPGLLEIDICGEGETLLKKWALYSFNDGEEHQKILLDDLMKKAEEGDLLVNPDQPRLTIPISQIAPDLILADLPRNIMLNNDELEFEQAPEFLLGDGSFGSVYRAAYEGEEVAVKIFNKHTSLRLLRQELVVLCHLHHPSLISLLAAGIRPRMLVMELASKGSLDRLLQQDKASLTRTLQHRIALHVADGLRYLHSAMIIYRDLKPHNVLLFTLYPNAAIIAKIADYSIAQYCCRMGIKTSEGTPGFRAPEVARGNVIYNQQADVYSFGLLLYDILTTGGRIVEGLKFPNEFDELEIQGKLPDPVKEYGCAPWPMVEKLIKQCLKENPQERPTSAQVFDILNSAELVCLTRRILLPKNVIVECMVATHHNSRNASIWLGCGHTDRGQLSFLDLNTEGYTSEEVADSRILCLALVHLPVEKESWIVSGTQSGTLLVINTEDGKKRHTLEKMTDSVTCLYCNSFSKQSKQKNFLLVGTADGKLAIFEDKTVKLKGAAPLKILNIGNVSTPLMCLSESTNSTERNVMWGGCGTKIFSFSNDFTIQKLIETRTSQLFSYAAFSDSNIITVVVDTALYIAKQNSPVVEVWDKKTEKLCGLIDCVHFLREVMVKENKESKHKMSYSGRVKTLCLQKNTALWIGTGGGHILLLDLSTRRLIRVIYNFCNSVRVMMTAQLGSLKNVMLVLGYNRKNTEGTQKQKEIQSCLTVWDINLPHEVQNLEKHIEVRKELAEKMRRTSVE
Chain of Leucine-rich repeat serine/threonine-protein kinase 2 (Homo sapiens, UniProt Q5S007) (Q5S007 whole entry, the tested form may be a part): as the sequence (Q5S007 whole entry G2019S, the tested form may be a part) above, with S2019G counted along it

As usually defined, the pIC50 is −log10 of the IC50, conventionally taken in molar units. For `O=S(=O)(NCCNC/C=C/c1ccc(Br)cc1)Nc1cccc2cnccc12`, the figures for the negative logarithm of the IC50 (pIC50) in assay [1], in assay [2] and in assay [3] were less than 5.00, less than 5.00 and 6.54, respectively.
